Experimental data from patent publication US20230085307A1, “PYRIDAZINONE COMPOUND AND HERBICIDE” (NISSAN CHEMICAL CORPORATION, priority 2019, published 2023).

| melting point [°C] | Structure (SMILES) |
| --- | --- |
| 161 to 163 | COc1ccccc1-c1sc2ccc(I)cc2c1-c1c(OC)c(C)nn(C)c1=O [Compound No. 2-131, 4-(5-iodo-2-(2-methoxyphenyl)benzo[b]thiophen-3-yl)-5-methoxy-2,6-dimethylpyridazin-3(2H)-one] |
| 219 to 221 | COc1ccccc1-c1sc2ccc(N)cc2c1-c1c(OC)c(C)nn(C)c1=O [Compound No. 2-174, 4-(5-amino-2-(2-methoxyphenyl)benzo[b]thiophen-3-yl)-5-methoxy-2,6-dimethylpyridazin-3(2H)-one] |
